# Results taken from patent US20080188528A1, “Modulators of C3a receptor and methods of use thereof” (priority 2006, published 2008).
# Counter-ions that a name gives are not always drawn.
# Biological target: T1, human C3a receptor (C3aR) (Homo sapiens, UniProt Q16581)
# T1 construct: expressed in transfected cells
# T1 sequence (Q16581 1-482): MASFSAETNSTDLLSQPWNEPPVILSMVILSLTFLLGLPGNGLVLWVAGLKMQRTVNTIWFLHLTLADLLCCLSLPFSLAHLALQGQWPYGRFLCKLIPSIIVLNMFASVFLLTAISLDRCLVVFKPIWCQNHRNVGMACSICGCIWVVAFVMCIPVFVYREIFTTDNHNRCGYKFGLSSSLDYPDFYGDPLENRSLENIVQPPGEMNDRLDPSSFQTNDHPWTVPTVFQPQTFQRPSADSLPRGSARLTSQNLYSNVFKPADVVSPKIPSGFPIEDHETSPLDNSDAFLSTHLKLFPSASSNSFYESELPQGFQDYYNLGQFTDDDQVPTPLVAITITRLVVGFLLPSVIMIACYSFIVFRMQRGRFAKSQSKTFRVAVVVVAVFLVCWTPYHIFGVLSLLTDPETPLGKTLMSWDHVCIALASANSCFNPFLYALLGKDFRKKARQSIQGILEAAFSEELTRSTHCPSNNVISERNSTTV
# Test: Inhibition of human [125I]-C3a binding to human C3a receptor (SPA, membranes of HEK293 cells expressing recombinant C3aR)
# Conditions: 0.1 nM [125I]-C3a, 3 hours at room temperature; Table 1
# Protocol: Inhibition of human [^125I]-C3a binding to human C3a receptor
# Binding of human [^125I]-C3a to human C3a receptor (C3aR) was done using cell membranes from HEK293 cells stably expressing recombinant C3aR, in a homogeneous scintillation proximity assay (SPA). The C3aR cell membranes were pre-coupled over-night at 4° C. to WGA-PVT SPA beads (Amersham) at a ratio of 10 μg cell membrane to 0.5 mg beads/assay. Assay was performed in 96-well microtiter Optiplates (Packard) by mixing coupled beads and 0.1 nM [^125I]-C3a (2200 Ci/mmol, Perkin Elmer Life Sciences), in a total volume of […] binding buffer (20 mM HEPES, pH 7.4, 125 mM NaCl, 5 mM KCl, 1 mM CaCl2, 1 mM MgCl2, 0.25% BSA, 0.2% CHAPS). Test compounds were diluted in DMSO and were tested for their inhibitory potential in the assay (final concentration≦1% DMSO). Incubation was done for 3 hours at room temperature followed by reading in a TopCount scintillation microplate reader. Non-specific binding was determined by adding 1 μM unlabeled C3a (Calbiochem) to the assay mixture. Calculation of the IC50 was done as above using a nonlinear least square fitting program, with Graphpad Prism.
row,SMILES,IC50
1,"N=C(N)NCCC[C@H](NC(=O)c1cccn(Cc2ccccc2)c1=O)C(=O)O [Compound 1, (2S)-2-{[(1-benzyl-2-oxo-1,2-dihydropyridin-3-yl)carbonyl]amino}-5-carbamimidamidopentanoic acid•TFA]",50 to 500 nM
2,"N=C(N)NCCC[C@@H](NC(=O)c1cccn(Cc2ccccc2)c1=O)C(=O)O [Compound 2, (2R)-2-{[(1-benzyl-2-oxo-1,2-dihydropyridin-3-yl)carbonyl]amino}-5-carbamimidamidopentanoic acid•TFA]",500 to 20000 nM
3,"N=C(N)NCCC[C@H](NC(=O)c1cccn(Cc2ccccc2Br)c1=O)C(=O)O [Compound 3, (2S)-2-({[1-(2-bromobenzyl)-2-oxo-1,2-dihydropyridin-3-yl]carbonyl}amino)-5-carbamimidamidopentanoic acid•TFA]",< 50 nM
4,"N=C(N)NCCC[C@H](NC(=O)c1cccn(Cc2cccc(Br)c2)c1=O)C(=O)O [Compound 4, (2S)-2-({[1-(3-bromobenzyl)-2-oxo-1,2-dihydropyridin-3-yl]carbonyl}amino)-5-carbamimidamidopentanoic acid•TFA]",< 50 nM
5,"N=C(N)NCCC[C@H](NC(=O)c1cccn(Cc2ccc(Br)cc2)c1=O)C(=O)O [Compound 5, (2S)-2-({[1-(4-bromobenzyl)-2-oxo-1,2-dihydropyridin-3-yl]carbonyl}amino)-5-carbamimidamidopentanoic acid•TFA]",< 50 nM
6,"CC(C)c1ccccc1Cn1cccc(C(=O)N[C@@H](CCCNC(=N)N)C(=O)O)c1=O [Compound 6, (2S)-5-carbamimidamido-2-({[1-(2-isopropylbenzyl)-2-oxo-1,2-dihydropyridin-3-yl]carbonyl}amino)pentanoic acid•TFA]",50 to 500 nM
7,"CC(C)c1cccc(Cn2cccc(C(=O)N[C@@H](CCCNC(=N)N)C(=O)O)c2=O)c1 [Compound 7, (2S)-5-carbamimidamido-2-({[1-(3-isopropylbenzyl)-2-oxo-1,2-dihydropyridin-3-yl]carbonyl}amino)pentanoic acid•TFA]",50 to 500 nM
8,CC(C)c1ccc(Cn2cccc(C(=O)N[C@@H](CCCNC(=N)N)C(=O)O)c2=O)cc1 [Compound 8],< 50 nM
9,"Cn1cccc(C(=O)N[C@@H](CCCNC(=N)N)C(=O)O)c1=O [Compound 9, (2S)-5-carbamimidamido-2-{[(1-methyl-2-oxo-1,2-dihydropyridin-3-yl)carbonyl]amino}pentanoic acid•TFA]",500 to 20000 nM
10,"N=C(N)NCCC[C@H](NC(=O)c1cccn(C2c3ccccc3-c3ccccc32)c1=O)C(=O)O [Compound 10, (2S)-5-carbamimidamido-2-({[1-(9H-fluoren-9-yl)-2-oxo-1,2-dihydropyridin-3-yl]carbonyl}amino)pentanoic acid•TFA]",50 to 500 nM
11,"N=C(N)NCCC[C@H](NC(=O)c1cccn(CC(c2ccccc2)c2ccccc2)c1=O)C(=O)O [Compound 11, (2S)-5-carbamimidamido-2-({[1-(2,2-diphenylethyl)-2-oxo-1,2-dihydropyridin-3-yl]carbonyl}amino)pentanoic acid•TFA]",< 50 nM
12,"N=C(N)NCCC[C@H](NC(=O)c1cccn(CCC(c2ccccc2)c2ccccc2)c1=O)C(=O)O [Compound 12, (2S)-5-carbamimidamido-2-({[1-(3,3-diphenylpropyl)-2-oxo-1,2-dihydropyridin-3-yl]carbonyl}amino)pentanoic acid•TFA]",< 50 nM
13,"N=C(N)NCCC[C@H](NC(=O)c1cccn(Cc2ccc3ccccc3c2)c1=O)C(=O)O [Compound 13, (2S)-5-carbamimidamido-2-({[1-(2-naphthylmethyl)-2-oxo-1,2-dihydropyridin-3-yl]carbonyl}amino)pentanoic acid•TFA]",< 50 nM
14,"N=C(N)NCCC[C@H](NC(=O)c1cccn(Cc2cccc3ccccc23)c1=O)C(=O)O [Compound 14, (2S)-5-carbamimidamido-2-({[1-(1-naphthylmethyl)-2-oxo-1,2-dihydropyridin-3-yl]carbonyl}amino)pentanoic acid•TFA]",< 50 nM
15,"N=C(N)NCCC[C@H](NC(=O)c1cccn(Cc2ccc3ccccc3n2)c1=O)C(=O)O [Compound 15, (2S)-5-carbamimidamido-2-({[2-oxo-1-(quinolin-2-ylmethyl)-1,2-dihydropyridin-3-yl]carbonyl}amino)pentanoic acid•TFA]",50 to 500 nM
16,"CC1(C)CCC(C)(C)c2cc(Cn3cccc(C(=O)N[C@@H](CCCNC(=N)N)C(=O)O)c3=O)ccc21 [Compound 16, (2S)-5-carbamimidamido-2-[({2-oxo-1-[(5,5,8,8-tetramethyl-5,6,7,8-tetrahydro-2-naphthyl)methyl]-1,2-dihydropyridin-3-yl}carbonyl)amino]pentanoic acid•TFA]",500 to 20000 nM
17,"N=C(N)NCCC[C@H](NC(=O)c1cccn(Cc2ccc3cc(F)ccc3c2)c1=O)C(=O)O [Compound 17, (2S)-5-carbamimidamido-2-[({1-[(6-fluoro-2-naphthyl)methyl]-2-oxo-1,2-dihydropyridin-3-yl}carbonyl)amino]pentanoic acid•TFA]",< 50 nM
18,"COc1cc2ccccc2cc1Cn1cccc(C(=O)N[C@@H](CCCNC(=N)N)C(=O)O)c1=O [Compound 18, (2S)-5-carbamimidamido-2-[({1-[(3-methoxy-2-naphthyl)methyl]-2-oxo-1,2-dihydropyridin-3-yl}carbonyl)amino]pentanoic acid•TFA]",50 to 500 nM
19,"COc1ccc2cc(Cn3cccc(C(=O)N[C@@H](CCCNC(=N)N)C(=O)O)c3=O)ccc2c1 [Compound 19, (2S)-5-carbamimidamido-2-[({1-[(6-methoxy-2-naphthyl)methyl]-2-oxo-1,2-dihydropyridin-3-yl}carbonyl)amino]pentanoic acid•TFA]",50 to 500 nM
20,"N=C(N)NCCC[C@H](NC(=O)c1cccn(Cc2ccccc2-c2ccccc2)c1=O)C(=O)O [Compound 20, (2S)-2-({[1-(biphenyl-2-ylmethyl)-2-oxo-1,2-dihydropyridin-3-yl]carbonyl}amino)-5-carbamimidamidopentanoic acid•TFA]",< 50 nM
21,"N=C(N)NCCC[C@H](NC(=O)c1cccn(Cc2cccc(-c3ccccc3)c2)c1=O)C(=O)O [Compound 21, (2S)-2-({[1-(biphenyl-3-ylmethyl)-2-oxo-1,2-dihydropyridin-3-yl]carbonyl}amino)-5-carbamimidamidopentanoic acid•TFA]",50 to 500 nM
22,"N=C(N)NCCC[C@H](NC(=O)c1cccn(Cc2ccc(-c3ccccc3)cc2)c1=O)C(=O)O [Compound 22, (2S)-2-({[1-(biphenyl-4-ylmethyl)-2-oxo-1,2-dihydropylidin-3-yl]carbonyl}amino)-5-carbamimidamidopentanoic acid]",< 50 nM
23,"N=C(N)NCCC[C@H](NC(=O)c1cccn(Cc2ccccc2Cc2ccccc2)c1=O)C(=O)O [Compound 23, (2S)-2-({[1-(2-benzylbenzyl)-2-oxo-1,2-dihydropyridin-3-yl]carbonyl}amino)-5-carbamimidamidopentanoic acid•TFA]",< 50 nM
24,"N=C(N)NCCC[C@H](NC(=O)c1cccn(Cc2cccc(Cc3ccccc3)c2)c1=O)C(=O)O [Compound 24, (2S)-2-({[1-(3-benzylbenzyl)-2-oxo-1,2-dihydropyridin-3-yl]carbonyl}amino)-5-carbamimidamidopentanoic acid•TFA]",50 to 500 nM
25,"N=C(N)NCCC[C@H](NC(=O)c1cccn(Cc2ccc(Cc3ccccc3)cc2)c1=O)C(=O)O [Compound 25, (2S)-2-({[1-(4-benzylbenzyl)-2-oxo-1,2-dihydropyridin-3-yl]carbonyl}amino)-5-carbamimidamidopentanoic acid•TFA]",50 to 500 nM
26,"N=C(N)NCCC[C@H](NC(=O)c1cccn(Cc2ccccc2-c2cccc3ccccc23)c1=O)C(=O)O [Compound 26, (2S)-5-carbamimidamido-2-[({1-[2-(1-naphthyl)benzyl]-2-oxo-1,2-dihydropyridin-3-yl}carbonyl)amino]pentanoic acid•TFA]",< 50 nM
27,"N=C(N)NCCC[C@H](NC(=O)c1cccn(Cc2ccccc2-c2ccc3ccccc3c2)c1=O)C(=O)O [Compound 27, (2S)-5-carbamimidamido-2-[({1-[2-(2-naphthyl)benzyl]-2-oxo-1,2-dihydropyridin-3-yl}carbonyl)amino]pentanoic acid•TFA]",< 50 nM
28,"CC(C)c1ccccc1-c1ccccc1Cn1cccc(C(=O)N[C@@H](CCCNC(=N)N)C(=O)O)c1=O [Compound 28, (2S)-5-carbamimidamido-2-[({1-[(2′-isopropylbiphenyl-2-yl)methyl]-2-oxo-1,2-dihydropyridin-3-yl}carbonyl)amino]pentanoic acid•TFA]",< 50 nM
